Measurements as given in patent EP3755703B1, “N-(PHENYL)-2-(PHENYL)PYRIMIDINE-4-CARBOXAMIDE DERIVATIVES AND RELATED COMPOUNDS AS HPK1 INHIBITORS FOR TREATING CANCER” (Incyte Corporation, priority 2018, dated 2019).

target: T1, HPK1 (Homo sapiens, UniProt Q92918); experiment: HPK1 Kinase Binding Assay; details: LanthaScreen tracer 222, one hour incubation at 25 °C
T1 construct: purchased SignalChem M23-11G
T1 sequence (Q92918 1-346 limits assumed): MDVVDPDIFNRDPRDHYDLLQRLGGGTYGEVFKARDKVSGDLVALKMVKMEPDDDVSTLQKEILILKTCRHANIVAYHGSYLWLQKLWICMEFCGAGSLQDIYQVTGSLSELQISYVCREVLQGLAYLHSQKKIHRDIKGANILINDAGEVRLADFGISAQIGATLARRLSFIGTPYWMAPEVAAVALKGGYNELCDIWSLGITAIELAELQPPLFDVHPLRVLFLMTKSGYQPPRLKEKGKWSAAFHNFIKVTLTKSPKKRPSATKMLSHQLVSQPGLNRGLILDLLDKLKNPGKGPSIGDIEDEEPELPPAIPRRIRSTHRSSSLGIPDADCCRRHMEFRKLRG
Experimental: A stock solution of 1 mM test compound was prepared in DMSO. The compound plate was prepared by 3-fold and 11-point serial dilutions. 0.1 µL of the compound in DMSO was transferred from the compound plate to the white 384 well polystyrene plates. The assay buffer contained 50 mM HEPES, pH 7.5, 0.01% Tween-20, 5 mM MgCl2, 0.01% BSA, and 5 mM DTT. 5 µL of 4 nM active HPK1 (SignalChem M23-11G) prepared in the buffer was added to the plate. The enzyme concentration given was based on the given stock concentration reported by the vender. […] After one hour incubation at 25 °C, the plates were read on a PHERAstar FS plate reader (BMG Labtech). Ki values were determined.

Structure (SMILES)	Ki [µM]
COc1ccc(F)c(F)c1-c1nccc(C(=O)Nc2cc(F)ccc2N2C[C@@H](N)C[C@H]2CO)n1 [Example 68, N-(2-((2S,4S)-4-Amino-2-(hydroxymethyl)pyrrolidin-1-yl)-5-fluorophenyl)-2-(2,3-difluoro-6-methoxyphenyl)pyrimidine-4-carboxamide]	< 0.1
COc1cccc(F)c1-c1nccc(C(=O)Nc2ccc(-c3cnccc3C#N)cc2N2C[C@H](C)NC[C@H]2CO)n1 [Example 51, N-(4-(4-Cyanopyridin-3-yl)-2-((2S,5S)-2-(hydroxymethyl)-5-methylpiperazin-1-yl)phenyl)-2-(2-fluoro-6-methoxyphenyl)pyrimidine-4-carboxamide]	< 0.1
[2H]C([2H])([2H])Oc1c(F)ccc(F)c1-c1nccc(C(=O)Nc2ccc(-c3cnccc3C#N)cc2N2C[C@@H](N)C[C@H]2CO)n1 [Example 75, N-(2-((2S,4S)-4-Amino-2-(hydroxymethyl)pyrrolidin-1-yl)-4-(4-cyanopyridin-3-yl)phenyl)-2-(3,6-difluoro-2-(methoxy-d3)phenyl)pyrimidine-4-carboxamide]	< 0.1
COc1cccc(F)c1-c1nccc(C(=O)Nc2ccccc2N2C[C@@H](N)C[C@H]2CO)n1 [Example 86, N-(2-((2S,4S)-4-Amino-2-(hydroxymethyl)pyrrolidin-1-yl)phenyl)-2-(2-fluoro-6-methoxyphenyl)pyrimidine-4-carboxamide]	< 0.1
[2H]C([2H])([2H])Oc1ccc(C#N)c(F)c1-c1nccc(C(=O)Nc2ccc(-c3cnccc3C#N)cc2N2C[C@@H](N)C[C@H]2CO)n1 [Example 74, N-(2-((2S,4S)-4-Amino-2-(hydroxymethyl)pyrrolidin-1-yl)-4-(4-cyanopyridin-3-yl)phenyl)-2-(3-cyano-2-fluoro-6-(methoxy-d3)phenyl)pyrimidine-4-carboxamide]	< 0.1
COc1cccc(F)c1-c1nccc(C(=O)Nc2cc(CO)ccc2N2C[C@H]3C[C@@H]2CN3)n1 [Example 36, N-(2-((1R,4R)-2,5-Diazabicyclo[2.2.1]heptan-2-yl)-5-(hydroxymethyl)phenyl)-2-(2-fluoro-6-methoxyphenyl)pyrimidine-4-carboxamide]	< 0.1
COc1cccc(F)c1-c1nccc(C(=O)Nc2cc(F)c(C(C)C)cc2N2CCN[C@H](CO)C2)n1 [Example 110, (S)-N-(5-Fluoro-2-(3-(hydroxymethyl)piperazin-1-yl)-4-isopropylphenyl)-2-(2-fluoro-6-methoxyphenyl)pyrimidine-4-carboxamide]	< 0.1
COc1cccc(F)c1-c1nccc(C(=O)Nc2cc(F)cc(-c3cnn(C)c3)c2N2C[C@H]3C[C@@H]2CN3)n1 [Example 16, N-(2-((1R,4R)-2,5-Diazabicyclo[2.2.1]heptan-2-yl)-5-fluoro-3-(1-methyl-1H pyrazol-4-yl)phenyl)-2-(2-fluoro-6-methoxyphenyl)pyrimidine-4-carboxamide]	< 0.1
COc1cccc(F)c1-c1nccc(C(=O)Nc2ccc(-c3cnccc3C#N)cc2N2CCO[C@@H](CN(C)C)C2)n1 [Example 101, (S)-N-(4-(4-Cyanopyridin-3-yl)-2-(2-((dimethylamino)methyl)morpholino)phenyl)-2-(2-fluoro-6-methoxyphenyl)pyrimidine-4-carboxamide]	< 0.1
COc1cccc(F)c1-c1nccc(C(=O)Nc2cc(F)ccc2N2C[C@@H](NC(C)C)C[C@H]2CO)n1 [Example 89, N-(5-Fluoro-2-((2S,4S)-2-(hydroxymethyl)-4-(isopropylamino)pyrrolidin-1-yl)phenyl)-2-(2-fluoro-6-methoxyphenyl)pyrimidine-4-carboxamide]	< 0.1
COc1cccc(F)c1-c1nccc(C(=O)Nc2cc(C)ccc2N2C[C@@H](N)C[C@H]2CO)n1 [Example 87, N-(2-((2S,4S)-4-Amino-2-(hydroxymethyl)pyrrolidin-1-yl)-5-methylphenyl)-2-(2-fluoro-6-methoxyphenyl)pyrimidine-4-carboxamide]	< 0.1
COc1cccc(F)c1-c1nccc(C(=O)Nc2ccc(-c3cnccc3C#N)cc2N2CCN3C(=O)OC[C@H]3C2)n1 [Example 103, (R)-N-(4-(4-Cyanopyridin-3-yl)-2-(3-oxotetrahydro-3H-oxazolo[3,4-a]pyrazin-7(1H)-yl)phenyl)-2-(2-fluoro-6-methoxyphenyl)pyrimidine-4-carboxamide]	< 0.1
N[C@H]1C[C@@H](CO)N(c2ccc(F)cc2NC(=O)c2ccnc(-c3c(F)cccc3F)n2)C1 [Example 66, N-(2-((2S,4S)-4-Amino-2-(hydroxymethyl)pyrrolidin-1-yl)-5-fluorophenyl)-2-(2,6-difluorophenyl)pyrimidine-4-carboxamide]	< 0.1

Results, then the compound that gave them:

Ki [µM]	Structure (SMILES)
< 0.1	N#Cc1ccncc1-c1ccc(NC(=O)c2ccnc(-c3c(F)cccc3C3CC3)n2)c(N2C[C@@H](N)C[C@H]2CO)c1 [Example 97, N-(2-((2S,4S)-4-Amino-2-(hydroxymethyl)pyrrolidin-1-yl)-4-(4-cyanopyridin-3-yl)phenyl)-2-(2-cyclopropyl-6-fluorophenyl)pyrimidine-4-carboxamide]
< 0.1	COc1cccc(F)c1-c1nccc(C(=O)Nc2ccc(-c3cnccc3C#N)cc2N2CCN(CCO)CC2)n1 [Example 109, N-(4-(4-Cyanopyridin-3-yl)-2-(4-(2-hydroxyethyl)piperazin-1-yl)phenyl)-2-(2-fluoro-6-methoxyphenyl)pyrimidine-4-carboxamide]
< 0.1	COc1cccc(F)c1-c1nccc(C(=O)Nc2ccc(-c3c(C)nn(C)c3C)cc2[C@H]2CC[C@@H](N)CC2)n1 [Example 84, N-(2-((cis)-4-Aminocyclohexyl)-4-(1,3,5-trimethyl-1H-pyrazol-4-yl)phenyl)-2-(2-fluoro-6-methoxyphenyl)pyrimidine-4-carboxamide]
< 0.1	COc1cccc(F)c1-c1nccc(C(=O)Nc2cc(F)ccc2N2CCC[C@@H]2CN)n1 [Example 3, (R)-N-(2-(2-(Aminomethyl)pyrrolidin-1-yl)-5-fluorophenyl)-2-(2-fluoro-6-methoxyphenyl)pyrimidine-4-carboxamide]
< 0.1	N#Cc1ccncc1-c1ccc(NC(=O)c2ccnc(-c3c(F)cccc3F)n2)c(N2C[C@@H](N)C[C@H]2CO)c1 [Example 62, N-(2-((2S,4S)-4-Amino-2-(hydroxymethyl)pyrrolidin-1-yl)-4-(4-cyanopyridin-3-yl)phenyl)-2-(2,6-difluorophenyl)pyrimidine-4-carboxamide]
< 0.1	N#Cc1ccncc1-c1ccc(NC(=O)c2ccnc(-c3c(F)cccc3OC(F)F)n2)c(N2C[C@@H](N)C[C@H]2CO)c1 [Example 95, N-(2-((2S,4S)-4-Amino-2-(hydroxymethyl)pyrrolidin-1-yl)-4-(4-cyanopyridin-3-yl)phenyl)-2-(2-(difluoromethoxy)-6-fluorophenyl)pyrimidine-4-carboxamide]
< 0.1	COc1cnccc1-c1ccc(NC(=O)c2ccnc(-c3c(F)cccc3OC)n2)c(N2C[C@@H](N)C[C@H]2CO)c1 [Example 44, N-(2-((2S,4S)-4-Amino-2-(hydroxymethyl)pyrrolidin-1-yl)-4-(3-methoxypyridin-4-yl)phenyl)-2-(2-fluoro-6-methoxyphenyl)pyrimidine-4-carboxamide]
